Measurements published in patent US9914730B2, “Azaquinazoline inhibitors of Atypical protein Kinase C” (Ignyta, Inc., priority 2012, dated 2018).

target: T1, full-length human PKCι (Homo sapiens, UniProt P41743); assay: PKCι IC50 IMAP assay, full-length PKCι at 150 μM ATP; format: biochemical; conditions: read-out: IC50 in IMAP assay against full length PKCi at 150 μM ATP
T1 construct: Recombinant, full-length human PKCι expressed in Sf21 insect cells is also commercially available; purchased; host or cells: Sf21 insect cells
T1 sequence (P41743 1-596): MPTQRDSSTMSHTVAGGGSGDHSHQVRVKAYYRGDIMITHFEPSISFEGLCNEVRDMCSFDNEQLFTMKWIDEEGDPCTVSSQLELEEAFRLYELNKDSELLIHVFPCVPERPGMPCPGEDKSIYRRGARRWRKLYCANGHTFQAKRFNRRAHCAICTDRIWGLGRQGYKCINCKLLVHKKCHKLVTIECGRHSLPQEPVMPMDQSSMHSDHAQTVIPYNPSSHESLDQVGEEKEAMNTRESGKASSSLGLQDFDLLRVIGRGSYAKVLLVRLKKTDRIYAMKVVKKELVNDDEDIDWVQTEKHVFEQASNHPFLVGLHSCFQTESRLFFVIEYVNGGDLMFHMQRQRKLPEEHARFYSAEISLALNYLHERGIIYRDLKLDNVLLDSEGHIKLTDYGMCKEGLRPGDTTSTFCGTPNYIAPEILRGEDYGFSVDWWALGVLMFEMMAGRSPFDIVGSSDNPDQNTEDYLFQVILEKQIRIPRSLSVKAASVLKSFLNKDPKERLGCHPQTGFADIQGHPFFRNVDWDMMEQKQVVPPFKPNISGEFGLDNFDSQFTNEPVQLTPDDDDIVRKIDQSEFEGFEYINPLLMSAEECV
Procedure, shortened: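 Full-length hPKCι (Sf21) ~15 pM; 5FAM-peptide 100 nM; ATP 150 μM (5× KM^APP); tris pH7.5/MgCl2/EGTA/DTT/Triton, 4% DMSO; 60 min RT; IMAP stop, 2 h; FP 485/530 nm; IC50 from % inhibition curves.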

| SMILES | IC50 |
| --- | --- |
| CN(c1nc(-c2ccnc(Nc3nc(F)c(F)cc3F)c2)nc2cncc(C3CC3)c12)C1CCNCC1 [Example 2014, {5-Cyclopropyl-2-[2-(3,5,6-trifluoro-pyridin-2-ylamino)-pyridin-4-yl]-pyrido[3,4-d]pyrimidin-4-yl}-methyl-piperidin-4-yl-amine] | < 100 nM |
| FC(F)(F)Cn1ccc(Nc2cc(-c3nc(N4CCNCC4)c4c(C5CC5)cncc4n3)ccn2)n1 [Example 2016, [4-(5-Cyclopropyl-4-piperazin-1-yl-pyrido[3,4-d]pyrimidin-2-yl)-pyridin-2-yl]-[1-(2,2,2-trifluoro-ethyl)-1H-pyrazol-3-yl]-amine] | < 100 nM |
| CN(c1nc(-c2ccnc(Nc3nc(F)cc(F)c3F)c2)nc2cncc(C3CC3)c12)C1CCNCC1 [Example 2019, {5-Cyclopropyl-2-[2-(3,4,6-trifluoro-pyridin-2-ylamino)-pyridin-4-yl]-pyrido[3,4-d]pyrimidin-4-yl}-methyl-piperidin-4-yl-amine] | < 100 nM |
| Fc1cc(F)c(Nc2cc(-c3nc(NC4CCNC4)c4c(C5CC5)cncc4n3)ccn2)nc1F (stereo not shown) [Example 2020, {5-Cyclopropyl-2-[2-(3,5,6-trifluoro-pyridin-2-ylamino)-pyridin-4-yl]-pyrido[3,4-d]pyrimidin-4-yl}-pyrrolidin-3-yl-amine] | < 100 nM |
| c1ccn2nc(Nc3cc(-c4nc(N5CCNCC5)c5c(C6CCC6)cncc5n4)ccn3)nc2c1 [Example 2022, [4-(5-Cyclobutyl-4-piperazin-1-yl-pyrido[3,4-d]pyrimidin-2-yl)-pyridin-2-yl]-[1,2,4]triazolo[1,5-a]pyridin-2-yl-amine] | < 100 nM |
| Fc1cccc(F)c1Nc1cc(-c2nc(NC3CNC3)c3c(C4CC4)cncc3n2)ccn1 [Example 2026, Azetidin-3-yl-{5-cyclopropyl-2-[2-(2,6-difluoro-phenylamino)-pyridin-4-yl]-pyrido[3,4-d]pyrimidin-4-yl}-amine] | < 100 nM |
| CN(c1nc(-c2ccnc(Nc3c(F)cccc3F)c2)nc2cncc(C3CC3)c12)C1CNC1 [Example 2029, Azetidin-3-yl-{5-cyclopropyl-2-[2-(2,6-difluoro-phenylamino)-pyridin-4-yl]-pyrido[3,4-d]pyrimidin-4-yl}-methyl-amine] | < 100 nM |
| FC(F)(F)Cn1cc(Cl)c(Nc2cc(-c3nc(N4CCNCC4)c4c(C5CC5)cncc4n3)ccn2)n1 [Example 2030, [4-Chloro-1-(2,2,2-trifluoro-ethyl)-1H-pyrazol-3-yl]-[4-(5-cyclopropyl-4-piperazin-1-yl-pyrido[3,4-d]pyrimidin-2-yl)-pyridin-2-yl]-amine] | < 100 nM |
| Fc1cccc(F)c1Nc1cc(-c2nc(N[C@H]3CCNC3)c3c(C4CC4)cncc3n2)ccn1 [Example 2034, {5-Cyclopropyl-2-[2-(2,6-difluoro-phenylamino)-pyridin-4-yl]-pyrido[3,4-d]pyrimidin-4-yl}-(S)-pyrrolidin-3-yl-amine] | < 100 nM |
| Fc1cccc(F)c1Nc1cc(-c2nc(N[C@@H]3CCNC3)c3c(C4CC4)cncc3n2)ccn1 [Example 2035, {5-Cyclopropyl-2-[2-(2,6-difluoro-phenylamino)-pyridin-4-yl]-pyrido[3,4-d]pyrimidin-4-yl}-(R)-pyrrolidin-3-yl-amine] | < 100 nM |
| Fc1ccc2c([nH]c3nccc(-c4nc(N5CCNCC5)c5c(C6CC6)cncc5n4)c32)c1F [Example 2036, 4-(5-Cyclopropyl-4-piperazin-1-yl-pyrido[3,4-d]pyrimidin-2-yl)-7,8-difluoro-9H-pyrido[2,3-b]indole] | < 100 nM |
| C[C@@H]1CN(c2nc(-c3ccnc(Nc4nc(F)cc(F)c4F)c3)nc3cncc(C4CC4)c23)C[C@H](C)N1 [Example 2037, {4-[5-Cyclopropyl-4-((cis)-3,5-dimethyl-piperazin-1-yl)-pyrido[3,4-d]pyrimidin-2-yl]-pyridin-2-yl}-(3,4,6-trifluoro-pyridin-2-yl)-amine] | < 100 nM |
| Fc1ccc2nc(Nc3cc(-c4nc(N5CCNCC5)c5c(C6CC6)cncc5n4)ccn3)nn2c1 [Example 2039, [4-(5-Cyclopropyl-4-piperazin-1-yl-pyrido[3,4-d]pyrimidin-2-yl)-pyridin-2-yl]-(6-fluoro-[1,2,4]triazolo[1,5-a]pyridin-2-yl)-amine] | < 100 nM |
| Fc1cc(F)c2nc(Nc3cc(-c4nc(N5CCNCC5)c5c(C6CC6)cncc5n4)ccn3)nn2c1 [Example 2040, [4-(5-Cyclopropyl-4-piperazin-1-yl-pyrido[3,4-d]pyrimidin-2-yl)-pyridin-2-yl]-(6,8-difluoro-[1,2,4]triazolo[1,5-a]pyridin-2-yl)-amine] | < 100 nM |
| Fc1cccc2nc(Nc3cc(-c4nc(N5CCNCC5)c5c(C6CC6)cncc5n4)ccn3)nn12 [Example 2041, [4-(5-Cyclopropyl-4-piperazin-1-yl-pyrido[3,4-d]pyrimidin-2-yl)-pyridin-2-yl]-(5-fluoro-[1,2,4]triazolo[1,5-a]pyridin-2-yl)-amine] | < 100 nM |

Continued, values first:

| IC50 | SMILES |
| --- | --- |
| < 100 nM | CCn1cc(Cl)c(Nc2cc(-c3nc(N4CCNCC4)c4c(C5CC5)cncc4n3)ccn2)n1 [Example 2015, (4-Chloro-1-ethyl-1H-pyrazol-3-yl)-[4-(5-cyclopropyl-4-piperazin-1-yl-pyrido[3,4-d]pyrimidin-2-yl)-pyridin-2-yl]-amine] |
| < 100 nM | CC1(C)CN(c2nc(-c3ccnc(Nc4ccn(CC(F)(F)F)n4)c3)nc3cncc(C4CC4)c23)CCN1 [Example 2017, {4-[5-Cyclopropyl-4-(3,3-dimethyl-piperazin-1-yl)-pyrido[3,4-d]pyrimidin-2-yl]-pyridin-2-yl}-[1-(2,2,2-trifluoro-ethyl)-1H-pyrazol-3-yl]-amine] |
| < 100 nM | CC(C)n1ccc(Nc2cc(-c3nc(N4CCNC(C)(C)C4)c4c(C5CC5)cncc4n3)ccn2)n1 [Example 2018, {4-[5-Cyclopropyl-4-(3,3-dimethyl-piperazin-1-yl)-pyrido[3,4-d]pyrimidin-2-yl]-pyridin-2-yl}-(1-isopropyl-1H-pyrazol-3-yl)-amine] |
| < 100 nM | Fc1cc(F)c(F)c(Nc2cc(-c3nc(NC4CCNC4)c4c(C5CC5)cncc4n3)ccn2)n1 (stereo not shown) [Example 2021, {5-Cyclopropyl-2-[2-(3,4,6-trifluoro-pyridin-2-ylamino)-pyridin-4-yl]-pyrido[3,4-d]pyrimidin-4-yl}-pyrrolidin-3-yl-amine] |
| < 100 nM | c1cc(Nc2cc(-c3nc(N4CCNCC4)c4c(C5CC5)cncc4n3)ccn2)cc(N2CCOCC2)c1 [Example 2023, [4-(5-Cyclopropyl-4-piperazin-1-yl-pyrido[3,4-d]pyrimidin-2-yl)-pyridin-2-yl]-(3-morpholin-4-yl-phenyl)-amine] |
| < 100 nM | FC(F)(F)c1cc2c(-c3nc(N4CCNCC4)c4c(C5CCC5)cncc4n3)ccnc2[nH]1 [Example 2024, 5-Cyclobutyl-4-piperazin-1-yl-2-(2-trifluoromethyl-1H-pyrrolo[2,3-b]pyridin-4-yl)-pyrido[3,4-d]pyrimidine] |
| < 100 nM | CN(c1nc(-c2ccnc(Nc3c(F)cccc3F)c2)nc2cncc(C3CC3)c12)C1CCNC1 (stereo not shown) [Example 2025, {5-Cyclopropyl-2-[2-(2,6-difluoro-phenylamino)-pyridin-4-yl]-pyrido[3,4-d]pyrimidin-4-yl}-methyl-pyrrolidin-3-yl-amine] |
| < 100 nM | Fc1ccc(F)c2c1[nH]c1nccc(-c3nc(N4CCNCC4)c4c(C5CC5)cncc4n3)c12 [Example 2027, 4-(5-Cyclopropyl-4-piperazin-1-yl-pyrido[3,4-d]pyrimidin-2-yl)-5,8-difluoro-9H-pyrido[2,3-b]indole] |
| < 100 nM | CC1(C)CN(c2nc(-c3ccnc4[nH]c(C(C)(C)C)cc34)nc3cncc(C4CCC4)c23)CCN1 [Example 2028, 2-(2-tert-Butyl-1H-pyrrolo[2,3-b]pyridin-4-yl)-5-cyclobutyl-4-(3,3-dimethyl-piperazin-1-yl)-pyrido[3,4-d]pyrimidine] |
| < 100 nM | Fc1cccc2c1[nH]c1nccc(-c3nc(N4CCNCC4)c4c(C5CC5)cncc4n3)c12 [Example 2031, 4-(5-Cyclopropyl-4-piperazin-1-yl-pyrido[3,4-d]pyrimidin-2-yl)-8-fluoro-9H-pyrido[2,3-b]indole] |
| < 100 nM | Fc1cccn2nc(Nc3cc(-c4nc(N5CCNCC5)c5c(C6CC6)cncc5n4)ccn3)nc12 [Example 2032, [4-(5-Cyclopropyl-4-piperazin-1-yl-pyrido[3,4-d]pyrimidin-2-yl)-pyridin-2-yl]-(8-fluoro-[1,2,4]triazolo[1,5-a]pyridin-2-yl)-amine] |
| < 100 nM | Fc1ccn2nc(Nc3cc(-c4nc(N5CCNCC5)c5c(C6CC6)cncc5n4)ccn3)nc2c1 [Example 2033, [4-(5-Cyclopropyl-4-piperazin-1-yl-pyrido[3,4-d]pyrimidin-2-yl)-pyridin-2-yl]-(7-fluoro-[1,2,4]triazolo[1,5-a]pyridin-2-yl)-amine] |
| < 100 nM | CC1(C)CC(Nc2nc(-c3ccnc(Nc4c(F)cccc4F)c3)nc3cncc(C4CC4)c23)CCN1 (stereo not shown) [Example 2038, {5-Cyclopropyl-2-[2-(2,6-difluoro-phenylamino)-pyridin-4-yl]-pyrido[3,4-d]pyrimidin-4-yl}-(2,2-dimethyl-piperidin-4-yl)-amine] |
